Where two headings read alike, the source gives them in different places.
How the values were obtained:
Format in all cases: biochemical
[1] = target: T1, MAO-A (Homo sapiens, UniProt P21397); assay: steady-state UV/Vis, 4-hydroxyquinoline at […] nm; details: 20 μM MAO-A as printed, 50 mM HEPES pH 7.5, 0.5% Triton X-100, 25 °C
T1 construct: gene MAOA; FAD enzyme; PDB 2Z5X was only the docking model
T1 sequence (P21397 1-527): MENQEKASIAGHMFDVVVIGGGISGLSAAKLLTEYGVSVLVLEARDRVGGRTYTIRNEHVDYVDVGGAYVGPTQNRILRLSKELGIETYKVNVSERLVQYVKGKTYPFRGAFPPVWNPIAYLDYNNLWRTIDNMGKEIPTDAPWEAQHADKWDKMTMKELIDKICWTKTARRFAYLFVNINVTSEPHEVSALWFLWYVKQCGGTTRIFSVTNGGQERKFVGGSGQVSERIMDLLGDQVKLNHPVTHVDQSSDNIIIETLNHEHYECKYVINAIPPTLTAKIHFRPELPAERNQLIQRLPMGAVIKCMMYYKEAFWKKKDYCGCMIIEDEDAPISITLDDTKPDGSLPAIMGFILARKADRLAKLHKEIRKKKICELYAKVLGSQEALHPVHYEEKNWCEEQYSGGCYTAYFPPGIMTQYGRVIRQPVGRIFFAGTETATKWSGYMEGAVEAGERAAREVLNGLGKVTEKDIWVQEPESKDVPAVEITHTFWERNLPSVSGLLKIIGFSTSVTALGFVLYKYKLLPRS

[2] = target: T2, MAO-B (Homo sapiens, UniProt P27338); assay: UV/Vis, benzaldehyde formation at […] nm
T2 construct: gene MAOB; FAD enzyme; PDB 2V5Z was only the docking model
T2 sequence (P27338 2-520): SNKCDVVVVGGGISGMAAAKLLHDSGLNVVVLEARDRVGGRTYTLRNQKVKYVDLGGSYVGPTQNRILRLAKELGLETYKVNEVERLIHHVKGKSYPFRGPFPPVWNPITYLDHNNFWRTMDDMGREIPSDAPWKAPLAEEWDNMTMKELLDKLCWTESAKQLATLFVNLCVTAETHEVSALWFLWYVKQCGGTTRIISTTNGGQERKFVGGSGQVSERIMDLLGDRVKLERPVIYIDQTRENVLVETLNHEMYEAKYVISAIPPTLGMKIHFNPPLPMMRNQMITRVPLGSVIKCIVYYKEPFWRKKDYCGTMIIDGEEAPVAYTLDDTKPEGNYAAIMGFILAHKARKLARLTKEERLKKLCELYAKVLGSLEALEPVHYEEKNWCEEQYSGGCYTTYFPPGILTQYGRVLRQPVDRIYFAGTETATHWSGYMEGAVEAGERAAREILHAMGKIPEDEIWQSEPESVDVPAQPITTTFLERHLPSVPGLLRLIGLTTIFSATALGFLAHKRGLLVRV

[3] = target: T1, MAO-A; assay: UV/Vis, 4-hydroxyquinoline formation at […] nm
[4] = target: T2, MAO-B; assay: UV/Vis, benzaldehyde formation at […] nm; details: 1.5 mM benzylamine, 30 μM MAO-B [sic], 50 mM HEPES pH 7.5, 0.5% Triton X-100, 25 °C; IC50 relative to fitted Imax (Hill-type fit); unreliable

Row | Compound | IC50 [2] | other results
1 | NCCC(=O)c1ccccc1N [compound 12, kynuramine] | – | Km [1]: 140 ± 30 µM
2 | CCCCCn1ncc2ccccc21 [compound 9, 1‐pentyl‐1H‐Indazole] | 540 ± 30 µM | –
3 | FCCCCCn1ccc2ccccc21 [compound 6, 1‐(5‐fluoropentyl)‐1H‐Indole] | 650 ± 90 µM | –
4 | Cn1ccc2ccccc21 [compound 10, 1‐methyl‐1H‐Indole] | 500 ± 20 µM | –
5 | CCCCCn1ccc2ccccc21 [compound 8, 1‐pentyl‐1H‐Indole] | 630 ± 30 µM | –
6 | FCCCCCn1ncc2ccccc21 [compound 7, 1‐(5‐fluoropentyl)‐1H‐Indazole] | 620 ± 20 µM | –
7 | COC(=O)C(NC(=O)c1cn(CCCCCF)c2ccccc12)C(C)(C)C (stereo not shown) [compound 2, methyl‐2‐[[1‐(5‐fluoropentyl)indole‐3‐carbonyl]amino]‐3,3‐dimethyl‐butanoate] | – | IC50 [3]: 77.1 ± 1.09 µM; MAO-B / IC50 [4]: 690 ± 420 µM
8 | N‐[[1‐(5‐fluoropentyl)‐1H‐indazol‐3‐yl]carbonyl]‐3‐methyl‐D‐valine methyl ester [compound 1] | – | IC50 ([3]; 1 mM kynuramine, 20 μM MAO-A as printed, 50 mM HEPES pH 7.5, 0.5% Triton X-100, 25 °C, IC50 relative to fitted Imax (Hill-type fit)): 87.8 ± 4.38 µM; IC50 ([2]; 1.5 mM benzylamine, 30 μM MAO-B [sic], 50 mM HEPES pH 7.5, 0.5% Triton X-100, 25 °C, IC50 relative to fitted Imax (Hill-type fit)): 420 ± 190 µM

— article PMC10952593, “Synthetic cannabinoid receptor agonists are monoamine oxidase‐A selective inhibitors” (The Febs Journal, 2023)
